Measurements from patent publication US9821072B2, “Activated neurotensin molecules and the uses thereof” (priority 2014, dated 2017).
Bridge positions count the residues as written; N and C are the ends. Square brackets hold non-standard residues; d marks the D form. Peptide text beside a SMILES is read from it. * marks the point of attachment. Pen = CC(C)(S)[C@H](N)C(=O)O; Tle = CC(C)(C)[C@H](N)C(=O)O; Pip = O=C(O)[C@@H]1CCCCN1; Propionyl = CCC(=O)*; Sar = CNCC(=O)O

Assays:
Sprague-Dawley rats = test: Hypothermic response after i.v. bolus in Sprague-Dawley rats; type: in vivo, rat; conditions: 5 mg/kg eq. NT i.v. bolus
[1] = molecular target: T1, rat neurotensin receptor type 1 (rNTR-1) (Rattus norvegicus, UniProt P20789); test: Competition binding assay with [3H]-neurotensin on rat NTR-1 membranes (HEK293 cells); conditions: read-out: NTR-1 binding affinity Ki, Rat NTR-1
T1 construct: host or cells: HEK293 cells (membrane homogenates)
T1 sequence (P20789 whole entry): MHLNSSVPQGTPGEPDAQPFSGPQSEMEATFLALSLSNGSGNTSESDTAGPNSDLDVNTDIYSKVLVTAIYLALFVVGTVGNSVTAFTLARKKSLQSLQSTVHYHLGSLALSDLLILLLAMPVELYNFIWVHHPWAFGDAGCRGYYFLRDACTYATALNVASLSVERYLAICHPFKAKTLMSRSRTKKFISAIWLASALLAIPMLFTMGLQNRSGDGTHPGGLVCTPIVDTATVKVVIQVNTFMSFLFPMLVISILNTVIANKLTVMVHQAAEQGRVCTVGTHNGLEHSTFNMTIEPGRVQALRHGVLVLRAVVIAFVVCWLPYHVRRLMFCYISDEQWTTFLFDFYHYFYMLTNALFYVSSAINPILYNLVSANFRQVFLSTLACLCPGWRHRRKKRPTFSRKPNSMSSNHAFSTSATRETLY

[2] = molecular target: T2, human neurotensin receptor type 1 (hNTR-1) (Homo sapiens, UniProt P30989); test: Competition binding assay with [3H]-neurotensin on human NTR-1 membranes (CHO cells); conditions: read-out: NTR-1 binding affinity Ki, Human NTR-1
T2 construct: purchased PerkinElmer; host or cells: CHO cells stably expressing human NTR-1 (membrane homogenates)
T2 sequence (P30989 whole entry): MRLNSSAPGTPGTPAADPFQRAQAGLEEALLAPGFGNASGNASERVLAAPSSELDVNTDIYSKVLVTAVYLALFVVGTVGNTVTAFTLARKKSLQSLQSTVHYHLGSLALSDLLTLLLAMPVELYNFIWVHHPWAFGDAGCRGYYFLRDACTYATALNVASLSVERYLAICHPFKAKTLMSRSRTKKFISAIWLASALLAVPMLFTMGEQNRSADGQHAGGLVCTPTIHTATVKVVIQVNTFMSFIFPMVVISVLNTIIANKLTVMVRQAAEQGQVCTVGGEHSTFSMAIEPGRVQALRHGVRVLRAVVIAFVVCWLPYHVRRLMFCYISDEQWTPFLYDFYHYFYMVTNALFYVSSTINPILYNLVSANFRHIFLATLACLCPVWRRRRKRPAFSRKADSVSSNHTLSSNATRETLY

[3] = system: FVB/N mice with KA-induced status epilepticus; test: Kainic acid-induced status epilepticus model (body temperature, seizures, neurodegeneration, neuroinflammation, mossy fiber sprouting); type: in vivo, mouse; conditions: administered 30 min after SE onset
Text: In the present case, excitotoxicity was induced by subcutaneous (s.c.) injection of kainic acid (KA), a pro-convulsant agent known to induce a status epilepticus (SE) with excitotoxicity, neuroinflammation, and severe neuronal damage in the hippocampus that can be observed 3 to 7 days after KA administration, and with aberrant axonal sprouting of the dentate gyrus mossy fibers that can be observed at 7-8 weeks after KA administration. We tested the effect of compound XIV on i) epileptic activity (persistence of recurrent seizures), ii) neurodegeneration, neuroinflammation and the resulting brain tissue damage and iii) aberrant axonal sprouting of the dentate gyrus mossy fibers.
FVB/N adult male mice were injected with a single dose of KA (40-45 mg/kg s.c.) to generate mice with spontaneous recurrent seizures as a hallmark of SE. A negative control group of mice were administered saline 0.9% instead of KA and no further treatment (“SHAM”, n=5). Thirty minutes after the onset of SE, mice received either an intravenous (tail vein) bolus injection of compound XIV at the dose of 4 mg/kg eq. NT (treatment group “SE+HT”, n=5) or saline 0.9% (group “SE”, n=5), or a high dose of diazepam (DZP) at 15 mg/kg), a potent anti-convulsive and anti-epileptic drug (positive control group “SE+DZP”). Body temperature was monitored before KA injection and then every 15 min during 6 hours thereafter, using a rectal probe. During this period, mice were assessed for the occurrence and severity of motor seizures. One week later, animals were sacrificed for histological assessment of neuronal cell death on coronal sections, the hippocampal formation being the main structure in the brain showing tissue damage in this model of excitotoxicity. Another group of animals with the same treatments was sacrificed 8 weeks for histological assessment of aberrant axonal sprouting of the dentate gyrus mossy fibers.
Administration of KA (40-45 mg/kg; s.c.) caused characteristic sequential behavioral changes. Immediately after being injected, all animals developed immobility (stage 1). Within 30 minutes after KA injection, automatisms with head nodding, forelimb clonus and circling behavior (stages 2-3) were observed. Then most animals progressed to intermittent (stage 4) followed by continuous (stage 5) rearing with forelimb clonus and falling behavior. […] Only animals attaining at least Racine stage 5 seizures were included in the study. The SE occurred around 2 hours after KA injection, was characterized by stage 5-6 seizures and often associated with hyperthermia (FIG. 13A). Compound XIV administered 30 min after SE onset (SE30) invariably led to transient hypothermia (FIG. 13A), which persisted at least 2 hrs. Mean decreases in body temperature (BT) of −2.5° C. and −3.6° C. were respectively recorded for SE30+ compound XIV animals as compared to SE animals (F=52.34; ***P<0.001). […] SE30+ compound XIV animals presented an average of stage 2 seizures or fewer during the rest of experiment. A subset of animals was administered i.p. a high dose of diazepam (DZP). […] Thus, administration of compound XIV at the dose of 4 mg/kg eq. […] This effect correlated with a −3 to −6° C. decrease in body temperature during ˜2.5 hours.
Using the anti-NeuN antibody and Fluoro-jade C that respectively label a neuronspecific nuclear protein and neuronal death, we observed a broad loss of CA1 and CA3 pyramidal cells as well as some dentate hilar neurons in the hippocampus of control SE animals (FIG. 14A, panel B), as compared to SHAM animals (FIG. 14A, panel A).
SE-induced gliosis involved microglia and astroglial cell types. We used GFAP and Iba1 immunolabeling to estimate the effect of compound XIV on neuroinflammation. In SHAM animals, a basal labeling for GFAP and Iba1 was detected in the HF (FIG. 14A, panel D). In SE animals, a very strong activation of glial cells occurred in all hippocampal layers (FIG. 14, panels E, H). […]

Compound	Ki [1]	Ki [2]	Maximal decrease in body temperature (Sprague-Dawley rats; 60 to 90 min post-injection)	also measured
CCC(=O)N[C@@H]1CSSC[C@@H](C(=O)N[C@@H](CCCNC(=N)N)C(=O)N[C@@H](CCCNC(=N)N)C(=O)N2CCC[C@H]2C(=O)N[C@@H](Cc2ccc(O)cc2)C(=O)N[C@H](C(=O)N[C@@H](CC(C)C)C(=O)O)[C@@H](C)CC)NC(=O)CN(C)C(=O)[C@H](CCCNC(=N)N)NC(=O)[C@H](CC(C)C)NC(=O)[C@H](CCCNC(=N)N)NC(=O)[C@@H]2CCCCN2C(=O)[C@H](CCSC)NC1=O [Compound IX, Pr-cMPipRLRSarC-RRPYIL-OH]	–	–	–	Maximal decrease in body temperature (Sprague-Dawley rats; 30 min post-injection): −1.2 °C
CCC(=O)N[C@@H]1CSSC[C@@H](C(=O)N[C@@H](CCCNC(=N)N)C(=O)N[C@@H](CCCNC(=N)N)C(=O)N2CCC[C@H]2C(=O)N[C@@H](Cc2ccc(O)cc2)C(=O)N[C@H](C(=O)N[C@@H](CC(C)C)C(=O)O)C(C)(C)C)NC(=O)CN(C)C(=O)[C@H](CCCNC(=N)N)NC(=O)[C@H](CC(C)C)NC(=O)[C@H](CCCNC(=N)N)NC(=O)[C@@H]2CCCCN2C(=O)[C@H](CCSC)NC1=O [Compound XV, Pr-cMPipRLRSarC-RRPYTIeL-OH] (Propionyl-[dC]M[Pip]RLR[Sar]CRRPY[Tle]L-OH; disulfide 1-8)	60 ± 20 pM	400 ± 200 pM	around −2 °C	–
CN1C(=O)CN=C(c2ccccc2)c2cc(Cl)ccc21 [DZP, diazepam, reference compound]	–	–	–	effect on body temperature (BT) compared with SE animals [3]: hypothermia was also observed; glial inflammatory response in the hippocampus (GFAP, Iba1) compared with SE animals [3]: significantly decreased; seizure stage (Racine) during the rest of the experiment [3]: 1-2 stage; number of mossy fiber terminals innervating the IML (ZnT3) compared with SE animals ([3]; 8 weeks after SE): considerably reduced; neurodegeneration in the hippocampus (NeuN, Fluoro-jade C) compared with SE animals ([3]; one week later): significantly decreased
CCC(=O)N[C@@H]1CSSC[C@@H](C(=O)N[C@@H](CCCCN)C(=O)N[C@@H](CCCNC(=N)N)C(=O)N2CCC[C@H]2C(=O)N[C@@H](Cc2c[nH]c3ccccc23)C(=O)N[C@H](C(=O)N[C@@H](CC(C)C)C(=O)O)C(C)(C)C)NC(=O)CN(C)C(=O)[C@H](CCCNC(=N)N)NC(=O)[C@H](CC(C)C)NC(=O)[C@H](CCCNC(=N)N)NC(=O)[C@@H]2CCCCN2C(=O)[C@H](CCSC)NC1=O [XIX, Pr-cMPipRLRSarC-KRPWTIeL-OH] (Propionyl-[dC]M[Pip]RLR[Sar]CKRPW[Tle]L-OH; disulfide 1-8)	30 ± 20 pM	6340 ± 2250 pM	–	Maximal decrease in body temperature (Sprague-Dawley rats; 90 min post-injection): around −2.8 °C
CCC(=O)N[C@@H]1CSSC[C@@H](C(=O)N[C@@H](CCCCN)C(=O)N[C@@H](CCCNC(=N)N)C(=O)N2CCC[C@H]2C(=O)N[C@@H](Cc2ccc(O)cc2)C(=O)N[C@H](C(=O)N[C@@H](CC(C)C)C(=O)O)C(C)(C)C)NC(=O)CN(C)C(=O)[C@H](CCCNC(=N)N)NC(=O)[C@H](CC(C)C)NC(=O)[C@H](CCCNC(=N)N)NC(=O)[C@@H]2CCCCN2C(=O)[C@H](CCSC)NC1=O [XVI, Pr-cMPipRLRSarC-KRPYTIeL-OH] (Propionyl-[dC]M[Pip]RLR[Sar]CKRPY[Tle]L-OH; disulfide 1-8)	–	150 ± 60 pM	around −2 °C	–
CCC(=O)N[C@@H]1CSSC[C@@H](C(=O)N[C@@H](CCCNC(=N)N)C(=O)N[C@@H](CCCCN)C(=O)N2CCC[C@H]2C(=O)N[C@@H](Cc2ccc(O)cc2)C(=O)N[C@H](C(=O)N[C@@H](CC(C)C)C(=O)O)C(C)(C)C)NC(=O)CN(C)C(=O)[C@H](CCCNC(=N)N)NC(=O)[C@H](CC(C)C)NC(=O)[C@H](CCCNC(=N)N)NC(=O)[C@@H]2CCCCN2C(=O)[C@H](CCSC)NC1=O [XVII, Pr-cMPipRLRSarC-RKPYTIeL-OH] (Propionyl-[dC]M[Pip]RLR[Sar]CRKPY[Tle]L-OH; disulfide 1-8)	190 ± 70 pM	470 ± 190 pM	around −2 °C	–
CCC(=O)N[C@@H]1CSSC[C@@H](C(=O)N[C@@H](CCCNC(=N)N)C(=O)N[C@@H](CCCNC(=N)N)C(=O)N2CCC[C@H]2C(=O)N[C@@H](Cc2c[nH]c3ccccc23)C(=O)N[C@H](C(=O)N[C@@H](CC(C)C)C(=O)O)C(C)(C)C)NC(=O)CN(C)C(=O)[C@H](CCCNC(=N)N)NC(=O)[C@H](CC(C)C)NC(=O)[C@H](CCCNC(=N)N)NC(=O)[C@@H]2CCCCN2C(=O)[C@H](CCSC)NC1=O [XVIII, Pr-cMPipRLRSarC-RRPWTIeL-OH] (Propionyl-[dC]M[Pip]RLR[Sar]CRRPW[Tle]L-OH; disulfide 1-8)	20 ± 10 pM	2980 ± 1080 pM	–	Maximal decrease in body temperature (Sprague-Dawley rats; 90 min post-injection): around −2.8 °C
CCC(=O)N[C@@H]1CSSC(C)(C)[C@@H](C(=O)N[C@@H](CCCCN)C(=O)N[C@@H](CCCNC(=N)N)C(=O)N2CCC[C@H]2C(=O)N[C@@H](Cc2ccc(O)cc2)C(=O)N[C@H](C(=O)N[C@@H](CC(C)C)C(=O)O)C(C)(C)C)NC(=O)CN(C)C(=O)[C@H](CCCNC(=N)N)NC(=O)[C@H](CC(C)C)NC(=O)[C@H](CCCNC(=N)N)NC(=O)[C@@H]2CCCCN2C(=O)[C@H](CCSC)NC1=O [XX, Pr-cMPipRLRSarPen-KRPYTIeL-OH] (Propionyl-[dC]M[Pip]RLR[Sar][Pen]KRPY[Tle]L-OH; disulfide 1-8)	80 ± 60 pM	110 ± 30 pM	around −2 °C	–
